Experiments:
Type in all cases: physicochemical
[1] = Hygroscopicity of the polymorphic form; details: crystalline anhydrous form
[2] = Dissolution rate comparison of Form A and Form B in size 1 capsules (FIG. 8); details: 50 mg drug substance/capsule, milled to D50 1-10 μm, compared with Form A
Description: The products is milled to D50 1-10 μm.

[3] = Variable temperature XRPD study
Experimental: The sample was placed in Anton-Paar TTK 450 chamber at 25° C. The temperature was controlled in-situ through the measurement files: p2853-vt, LRP-1301-39-01.dql, LRP-1301-42-01.dql, LRP-1301-42-02.dql. The sample was heated from 25° C. to 200° C. at 1° C./min. XRPD data were collected from 30° C. to 200° C. every 10° C. Approximately 40 mg of the sample was placed in a Ni-coated sample holder under ambient conditions. The sample was loaded at 25° C.
At 200° C., changes (shifts) in peak position in the high 2-theta region were observed. This may be attributed to the thermal expansion effect.

[4] = Thermodynamic stability of the polymorphic form
[5] = Solubility profile of the polymorphic form

Row | Structure (SMILES) | hygroscopicity [1] | dissolution rate [2] | form by XRPD after heating to 200° C. and cooling to room temperature ([3]; cooled to room temperature (20° C.)) | thermodynamic stability [4] | solubility profile [5] | temperature of conversion to Form B on heating ([3]; heated from 25° C. to 200° C. at 1° C./min)
1 | Cc1ccc(C(=O)NC2CC2)cc1-n1ncc(C(=O)c2cccc(C#N)c2)c1N [Form B, 3-[5-amino-4-(3-cyanobenzoyl)-pyrazol-1-yl]-N-cyclopropyl-4-methylbenzamide] | non-hygroscopic | higher dissolution rate than Form A | remained unchanged | thermodynamically stable | favourable solubility profile | 
2 | Cc1ccc(C(=O)NC2CC2)cc1-n1ncc(C(=O)c2cccc(C#N)c2)c1N [Form A, 3-[5-amino-4-(3-cyanobenzoyl)-pyrazol-1-yl]-N-cyclopropyl-4-methylbenzamide] |  |  |  |  |  | above 100 °C
